Experimental data as given in PubChem BioAssay (NCI).
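Five concentrations, 48 hours, 96-well plates. GI50: concentration for 50% inhibition of growth. TGI is the concentration that stops growth completely.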

Experiments:
Test in all cases: DTP human tumour cell line panel, 48 h
[1] = system: NCI-H460 lung
[2] = system: HCT-15 colon
[3] = system: EKVX NSCLC
[4] = system: SK-MEL-2 melanoma
[5] = system: SW-620 colon
[6] = system: HCT-116 colon
[7] = system: M14 melanoma
[8] = system: HT29 colon
[9] = system: T-47D breast
[10] = system: NCI/ADR-RES ovarian

| SMILES | TGI [1] [µM] | TGI [2] [µM] | TGI [3] [µM] | TGI [4] [µM] | TGI [5] [µM] | TGI [6] [µM] | TGI [7] [µM] | TGI [8] [µM] | TGI [9] [µM] | GI50 [1] [µM] | GI50 [2] [µM] | GI50 [7] [µM] | GI50 [3] [µM] | GI50 [4] [µM] | GI50 [5] [µM] | GI50 [8] [µM] | GI50 [6] [µM] | GI50 [9] [µM] | GI50 [10] [µM] | TGI [10] [µM] |
| --- | --- | --- | --- | --- | --- | --- | --- | --- | --- | --- | --- | --- | --- | --- | --- | --- | --- | --- | --- | --- |
| C[Si](C)(C)C(CCCCSc1ccccc1)(Sc1ccccc1)Sc1ccccc1 | > 100 | > 100 | > 100 | > 100 | > 100 | > 100 |  |  |  |  |  |  |  |  |  |  |  |  |  |  |
| O=C(C#Cc1ccccc1)N1c2ccccc2CC1c1c[nH]c2ccccc12 (stereo not drawn) | 42.3 | 24.9 | 42.1 | 26.6 | 30.3 | 26.5 | 28.8 | 40.6 |  |  |  |  |  |  |  |  |  |  |  |  |
| CCc1ccccc1NC(=O)/C=C/c1ccccc1 | > 100 | > 100 | > 100 | > 100 | > 100 | > 100 | > 100 | > 100 | > 100 |  |  |  |  |  |  |  |  |  |  |  |
| COc1ccc(OC(C(=O)O)C(C)C)c2c1CCCC2=O (stereo not drawn) | > 100 | > 100 | > 100 | > 100 | > 100 | > 100 | > 100 | > 100 |  |  |  |  |  |  |  |  |  |  |  |  |
| COc1ccc(-c2cc(C(=O)Nc3cc(C(F)(F)F)cc(C(F)(F)F)c3)c3ccccc3n2)cc1 | 19.4 | 28.7 | 27.4 | 30.6 | 21 | 18.6 | 25 | 36.1 |  |  |  |  |  |  |  |  |  |  |  |  |
| [O-]c1ccccc1C=Nc1ccc2c(c1)CCC2.[O-]c1ccccc1C=Nc1ccc2c(c1)CCC2.[O]=[U+2]=[O] | > 100 | > 100 | > 100 | > 100 | > 100 | > 100 | > 100 | > 100 |  | 47.3 | 28.3 | > 100 | > 100 | > 100 | > 100 | > 100 | 13.5 |  |  |  |
| O=c1nc(-c2ccccc2)cc(CC(O)c2ccc(Cl)c(Cl)c2)[nH]1 (stereo not drawn) | > 100 | > 100 | > 100 | 65.3 | > 100 | > 100 | > 100 | > 100 |  |  |  |  |  |  |  |  |  |  |  |  |
| O=C1C(=O)N(c2ccc(Cl)cc2)C(=O)C(=O)C1c1nc2ccccc2s1 | > 100 | > 100 | > 100 | > 100 | > 100 | > 100 | > 100 | > 100 |  |  |  |  |  |  |  |  |  |  |  |  |
| CCCCCCCC(=O)OCCCC1[C@]2(C)CC[C@@]3(C)C([C@H](C)CCC=C(C)C)CC[C@]3(C)C2CC[C@]12OC2(C)C (stereo partly drawn) | 71 | > 100 | > 100 |  | > 100 | > 100 | > 100 | > 100 | > 100 | 26.2 | 29.4 | > 100 | 49.7 |  | 40.4 | 42.3 | 52.2 | 35.7 | 35 | > 100 |
| Cc1cc(Nc2nc(C(=O)Nc3ccccc3)nc3ccccc23)n[nH]1 | > 25 | > 25 |  | > 25 | > 25 | > 25 | > 25 | > 25 | > 25 | 2.29 | 1.39 | 3.48 |  | 3.57 | 9.7 | 17.6 | 4.7 | 6.61 | 0.916 | > 25 |
| O=C1OC(c2ccccc2)=N/C1=C\c1ccc(Oc2ccc(Cl)c(Cl)c2)cc1 | > 100 | > 100 | > 100 | > 100 | > 100 | > 100 | > 100 | > 100 |  |  |  |  |  |  |  |  |  |  |  |  |
| COC(=O)CC(C(C(=O)OCc1ccccc1)C(C)O)N1C(=O)OC(c2ccccc2)C1c1ccccc1 (stereo not drawn) | > 100 | > 100 | > 100 | > 100 | > 100 | > 100 | > 100 | > 100 |  |  |  |  |  |  |  |  |  |  |  |  |
| CCOC(=O)CCC1(C(=O)OCC)CCCC1=O (stereo not drawn) | > 100 | > 100 | > 100 | > 100 |  | > 100 | > 100 | > 100 |  |  |  |  |  |  |  |  |  |  |  |  |
| c1cc(-c2nnc(SSc3ncnc4nc[nH]c34)o2)ccn1 | > 100 | > 100 | > 100 |  | > 100 | > 100 | > 100 | > 100 | > 100 | 5.15 | 2.8 | 0.405 | 24.4 |  | 3.38 | 2.42 | 2 | 0.467 | 2.74 | > 100 |
| COC(=O)CCC12CCC(=O)C1[C@@H](C(=O)OC)C[C@H]2C(=O)OC (stereo partly drawn) | > 100 | > 100 | > 100 | > 100 | > 100 | > 100 | > 100 | > 100 |  |  |  |  |  |  |  |  |  |  |  |  |
| C#CCNC(=S)N/N=C(\C)c1ccccn1 | 5.22 | > 100 | > 100 | > 100 | > 100 | > 38 | 5.15 | > 100 | > 100 | 0.949 | 0.36 | 0.454 | 0.595 | 6.2 | 0.341 | 0.234 | 0.0329 | 0.0933 |  |  |
| C#CCNC(=O)NCCCCC(NC(=O)OCc1ccccc1)C(=O)OCc1ccccc1 (stereo not drawn) | > 100 | > 100 | > 100 | > 100 | > 100 | > 100 | > 100 | > 100 |  |  |  |  |  |  |  |  |  |  |  |  |
| Cn1cccc1-c1cc(-c2ccccc2)[nH]c(=O)c1C#N | > 100 | > 100 | > 100 | > 100 | > 100 | > 100 |  | > 100 | > 100 | > 100 | > 100 |  | 37.3 | > 100 | > 100 | > 100 | > 100 | > 100 | > 100 | > 100 |
| O=c1cccccc1NCCCCCCCNc1cccccc1=O | > 100 | > 100 | > 100 | > 100 | > 100 | > 100 | 74.6 | > 100 |  |  |  |  |  |  |  |  |  |  |  |  |
